ChEMBL document CHEMBL3044684, “Synthesis and cytotoxic activity of novel benzopyrano[3,2-c]chromene-6,8-dione derivatives” (Med Chem Res, 2011)

Experiments:
Type in all cases: functional, cell-based
MCF7 = test: Cytotoxicity against Homo sapiens (human) MCF7 cells after 96 hr by MTT assay; conditions: MCF7, 96 h
Raji = test: Cytotoxicity against Homo sapiens (human) Raji cells after 96 hr by MTT assay
[1] = Cytotoxicity against Homo sapiens (human) LS180 cells after 96 hr by MTT assay; conditions: LS180, 96 h
HeLa = test: Cytotoxicity against Homo sapiens (human) HeLa cells after 96 hr by MTT assay

| SMILES | IC16 (MCF7) [µM] | IC50 (MCF7) [µM] | IC16 (Raji) [µM] | IC50 (Raji) [µM] | IC16 [1] [µM] | IC50 [1] [µM] | IC16 (HeLa) [µM] | IC50 (HeLa) [µM] |
| --- | --- | --- | --- | --- | --- | --- | --- | --- |
| O=C1CCCC2=C1C(c1cccc(Br)c1)c1c(c3ccccc3oc1=O)O2 (stereo not drawn) | > 50 | > 50 | 11.3 | 49.3 | 35.1 | 83.8 | 21.9 | 61.6 |
| O=C1CCCC2=C1C(c1ccc(Br)cc1)c1c(c3ccccc3oc1=O)O2 (stereo not drawn) | 15.7 | 49.3 | 22.4 | 82.4 | > 100 | > 100 | > 100 | > 100 |
| O=C1CCCC2=C1C(c1ccccc1Cl)c1c(c3ccccc3oc1=O)O2 (stereo not drawn) | > 25 | > 25 | > 25 | > 25 | > 25 | > 25 | > 25 | > 25 |
| O=C1CCCC2=C1C(c1cccc(Cl)c1)c1c(c3ccccc3oc1=O)O2 (stereo not drawn) | > 50 | > 50 | 23.9 | > 50 | > 50 | > 50 | > 50 | > 50 |
| O=C1CCCC2=C1C(c1ccc(Cl)cc1)c1c(c3ccccc3oc1=O)O2 (stereo not drawn) | 54.7 | > 100 | 59 | > 100 | > 100 | > 100 | 17.9 | 55.8 |
| COc1ccccc1C1C2=C(CCCC2=O)Oc2c1c(=O)oc1ccccc21 (stereo not drawn) | > 100 | > 100 | 30.3 | > 100 | 52.1 | > 100 | 37.6 | 74.3 |
| COc1cccc(C2C3=C(CCCC3=O)Oc3c2c(=O)oc2ccccc32)c1 (stereo not drawn) | 22.2 | 58.6 | 13.1 | 49.2 | 48.9 | 99.7 | 25.3 | 89.9 |
| COc1ccc(C2C3=C(CCCC3=O)Oc3c2c(=O)oc2ccccc32)cc1 (stereo not drawn) | 35.9 | 76.3 | 33.1 | > 100 | 100 | > 100 | 48.7 | 97.9 |
| Cc1ccccc1C1C2=C(CCCC2=O)Oc2c1c(=O)oc1ccccc21 (stereo not drawn) | 30.9 | > 100 | 26.4 | 79.7 | 53.8 | > 100 | 42.9 | > 100 |
| Cc1cccc(C2C3=C(CCCC3=O)Oc3c2c(=O)oc2ccccc32)c1 (stereo not drawn) | 42.8 | > 100 | 26.7 | 72.7 | 47 | > 100 | 41.7 | > 100 |
| Cc1ccc(C2C3=C(CCCC3=O)Oc3c2c(=O)oc2ccccc32)cc1 (stereo not drawn) | 49.2 | > 100 | 8.5 | 78.9 | 74.2 | > 100 | 38.8 | > 100 |
| O=C1CCCC2=C1C(c1ccccc1[N+](=O)[O-])c1c(c3ccccc3oc1=O)O2 (stereo not drawn) | 28 | 59.5 | 14.9 | 54.8 | > 100 | > 100 | 18.1 | > 100 |
| O=C1CCCC2=C1C(c1cccc([N+](=O)[O-])c1)c1c(c3ccccc3oc1=O)O2 (stereo not drawn) | 23.1 | 80.3 | 55.8 | > 100 | 60.9 | > 100 | 26.2 | 63.1 |
| O=C1CCCC2=C1C(c1ccc([N+](=O)[O-])cc1)c1c(c3ccccc3oc1=O)O2 (stereo not drawn) | 26 | 61.7 | 47.7 | > 100 | 32.6 | 75.7 | > 100 | > 100 |
| O=C1CCCC2=C1C(c1ccccc1Br)c1c(c3ccccc3oc1=O)O2 (stereo not drawn) | > 100 | > 100 | > 100 | > 100 | > 100 | > 100 | > 100 | > 100 |
| COc1cccc2c1C(=O)c1c(O)c3c(c(O)c1C2=O)C[C@@](O)(C(=O)CO)C[C@@H]3O[C@H]1C[C@H](N)[C@H](O)[C@H](C)O1 [DOXORUBICIN] | 0.051 | 0.211 | 0.012 | 0.039 | 0.03 | 0.13 | 0.015 | 0.053 |
